{"source": "paper PMC6199744", "about": "“Development of Chemical Proteomics for the Folateome and Analysis of the Kinetoplastid Folateome” (ACS Infectious Diseases, 2018)", "assay_type_in_all_cases": "binding", "key": {"[1]": {"biological_target": "T1, HeLa cell extract proteins (Homo sapiens, UniProt Q9NX61)", "T1 construct": "endogenous in cells; host or cells: HeLa cell extract", "T1 sequence (Q9NX61 29-479)": "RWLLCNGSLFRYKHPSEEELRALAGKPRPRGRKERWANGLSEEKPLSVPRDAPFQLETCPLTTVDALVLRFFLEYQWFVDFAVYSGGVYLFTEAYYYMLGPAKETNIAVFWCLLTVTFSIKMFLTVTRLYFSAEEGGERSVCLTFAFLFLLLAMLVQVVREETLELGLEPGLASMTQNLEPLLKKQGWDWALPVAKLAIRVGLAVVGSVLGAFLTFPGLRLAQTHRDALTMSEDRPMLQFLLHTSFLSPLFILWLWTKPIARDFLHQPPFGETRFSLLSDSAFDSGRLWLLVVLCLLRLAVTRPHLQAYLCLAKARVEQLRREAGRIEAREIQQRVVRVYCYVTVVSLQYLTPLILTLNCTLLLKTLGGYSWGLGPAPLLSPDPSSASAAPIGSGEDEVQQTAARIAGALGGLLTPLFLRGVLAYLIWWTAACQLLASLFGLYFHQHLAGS", "settings": "captured protein TMEM161A; HeLa"}, "[2]": {"biological_target": "T2, HeLa cell extract proteins (Homo sapiens, UniProt P12236)", "T2 construct": "endogenous in cells; host or cells: HeLa cell extract", "T2 sequence (P12236 1-298)": "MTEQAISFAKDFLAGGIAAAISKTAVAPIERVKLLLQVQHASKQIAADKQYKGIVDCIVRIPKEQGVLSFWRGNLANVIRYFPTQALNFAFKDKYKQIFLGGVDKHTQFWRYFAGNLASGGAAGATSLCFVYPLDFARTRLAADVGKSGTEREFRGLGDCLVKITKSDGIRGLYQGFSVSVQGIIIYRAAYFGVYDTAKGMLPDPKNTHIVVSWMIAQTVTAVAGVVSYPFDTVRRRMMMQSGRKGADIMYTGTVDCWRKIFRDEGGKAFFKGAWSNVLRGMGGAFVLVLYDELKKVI", "settings": "captured protein SLC25A6; HeLa"}, "[3]": {"biological_target": "T3, HeLa cell extract proteins (Homo sapiens, UniProt P14866)", "T3 construct": "endogenous in cells; host or cells: HeLa cell extract", "T3 sequence (P14866 1-589)": "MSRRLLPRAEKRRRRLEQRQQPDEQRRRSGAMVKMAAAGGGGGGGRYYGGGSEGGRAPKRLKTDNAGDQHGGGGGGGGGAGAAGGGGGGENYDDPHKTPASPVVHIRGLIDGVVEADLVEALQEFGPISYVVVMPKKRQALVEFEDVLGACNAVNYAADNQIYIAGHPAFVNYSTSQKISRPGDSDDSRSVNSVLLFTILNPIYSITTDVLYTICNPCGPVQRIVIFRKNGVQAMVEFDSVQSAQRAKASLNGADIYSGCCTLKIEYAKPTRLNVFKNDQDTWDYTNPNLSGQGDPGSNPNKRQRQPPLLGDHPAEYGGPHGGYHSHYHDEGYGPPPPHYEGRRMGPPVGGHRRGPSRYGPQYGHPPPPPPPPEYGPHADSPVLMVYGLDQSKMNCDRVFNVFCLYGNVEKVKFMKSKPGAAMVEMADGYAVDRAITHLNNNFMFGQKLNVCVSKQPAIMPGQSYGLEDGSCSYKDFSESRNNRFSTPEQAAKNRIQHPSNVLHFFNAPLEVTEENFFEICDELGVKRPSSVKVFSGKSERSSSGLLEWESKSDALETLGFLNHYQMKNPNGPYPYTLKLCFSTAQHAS", "settings": "protein HNRNPL; HeLa"}, "[4]": {"biological_target": "T4, HeLa cell extract proteins (Homo sapiens, UniProt P35268)", "T4 construct": "endogenous in cells; host or cells: HeLa cell extract"}, "[5]": {"biological_target": "T5, HeLa cell extract proteins (Homo sapiens, UniProt P13797)", "T5 construct": "endogenous in cells; host or cells: HeLa cell extract", "T5 sequence (P13797 1-630)": "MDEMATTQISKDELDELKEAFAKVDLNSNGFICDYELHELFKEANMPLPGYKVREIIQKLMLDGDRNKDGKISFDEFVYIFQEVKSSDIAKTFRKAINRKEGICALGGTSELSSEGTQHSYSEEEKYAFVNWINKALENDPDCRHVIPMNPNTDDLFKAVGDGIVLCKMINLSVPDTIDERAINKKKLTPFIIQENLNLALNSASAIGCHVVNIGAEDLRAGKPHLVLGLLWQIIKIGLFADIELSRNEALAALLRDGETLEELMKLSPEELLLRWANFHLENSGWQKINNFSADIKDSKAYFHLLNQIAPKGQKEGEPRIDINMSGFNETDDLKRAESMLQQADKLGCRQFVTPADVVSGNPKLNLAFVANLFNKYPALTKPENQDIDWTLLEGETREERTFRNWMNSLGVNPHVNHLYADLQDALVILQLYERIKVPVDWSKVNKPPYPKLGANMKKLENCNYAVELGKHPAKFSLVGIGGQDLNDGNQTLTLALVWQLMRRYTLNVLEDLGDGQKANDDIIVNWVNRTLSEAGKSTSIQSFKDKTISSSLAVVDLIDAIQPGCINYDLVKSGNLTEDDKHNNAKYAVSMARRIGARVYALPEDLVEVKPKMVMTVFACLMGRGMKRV"}, "[6]": {"biological_target": "T6, HeLa cell extract proteins (Homo sapiens, UniProt O14979)", "T6 construct": "endogenous in cells; host or cells: HeLa cell extract", "T6 sequence (O14979 1-420)": "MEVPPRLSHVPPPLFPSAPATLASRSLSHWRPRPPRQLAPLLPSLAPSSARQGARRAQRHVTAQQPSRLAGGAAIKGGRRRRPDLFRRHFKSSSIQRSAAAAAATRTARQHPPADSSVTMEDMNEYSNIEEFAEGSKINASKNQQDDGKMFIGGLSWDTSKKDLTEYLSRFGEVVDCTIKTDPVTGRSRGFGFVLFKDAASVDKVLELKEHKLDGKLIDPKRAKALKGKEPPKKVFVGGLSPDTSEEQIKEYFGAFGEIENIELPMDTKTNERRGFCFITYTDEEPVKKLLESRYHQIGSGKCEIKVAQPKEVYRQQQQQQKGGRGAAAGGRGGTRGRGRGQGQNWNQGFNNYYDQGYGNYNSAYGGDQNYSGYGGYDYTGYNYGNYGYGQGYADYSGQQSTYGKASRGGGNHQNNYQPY"}, "[7]": {"biological_target": "T7, HeLa cell extract proteins (Homo sapiens, UniProt O00170)", "T7 construct": "endogenous in cells; host or cells: HeLa cell extract", "T7 sequence (O00170 1-330)": "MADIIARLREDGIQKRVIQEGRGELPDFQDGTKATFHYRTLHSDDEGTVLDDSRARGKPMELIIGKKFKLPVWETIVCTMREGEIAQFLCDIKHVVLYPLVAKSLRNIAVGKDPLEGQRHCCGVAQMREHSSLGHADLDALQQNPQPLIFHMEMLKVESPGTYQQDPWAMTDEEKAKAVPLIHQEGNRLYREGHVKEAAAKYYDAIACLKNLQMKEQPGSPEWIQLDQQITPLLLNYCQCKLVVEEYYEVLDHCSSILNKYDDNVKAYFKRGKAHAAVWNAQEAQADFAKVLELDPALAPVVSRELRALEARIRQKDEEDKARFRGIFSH"}}, "note": "Like-named read-outs stand apart in the source and are kept apart here.", "data": [{"smiles": "Nc1nc2cccc(-c3ccccc3)c2n1Cc1ccc(Cl)c(Cl)c1", "note": "[compound 3]", "values": [{"measurement": "fold changes relative to vehicle control", "setting": "[1]", "value": 0.94}, {"measurement": "fold changes relative to vehicle control", "setting": "[2]", "value": 1.01}, {"measurement": "fold changes relative to vehicle control", "setting": "[3]", "value": 0.88}]}, {"smiles": "CCCCCCOc1ccc(Cc2cnc(N)nc2N)cc1", "note": "[compound 1]", "values": [{"measurement": "fold changes relative to vehicle control", "setting": "[1]", "value": 0.76}, {"measurement": "fold changes relative to vehicle control", "setting": "[2]", "value": 0.98}, {"measurement": "fold changes relative to vehicle control", "setting": "[3]", "value": 1}]}, {"smiles": "NCCCNc1ccc(C(=O)NC(CCC(=O)O)C(=O)O)cc1", "note": "(stereo not shown) [compound 7]", "values": [{"measurement": "fold changes relative to vehicle control", "setting": "[4]; HeLa, protein RPL22", "value": 1.19}, {"measurement": "fold changes relative to vehicle control", "setting": "[5]; HeLa, protein PLS3", "value": 1}, {"measurement": "fold changes relative to vehicle control", "setting": "[6]; HeLa, captured protein HNRPDL", "value": 1.03}, {"measurement": "fold changes relative to vehicle control", "setting": "[7]; HeLa, captured protein AIP", "value": 0.99}]}, {"smiles": "CCCCCCOc1cccc(Cc2cnc(N)nc2N)c1", "note": "[compound 2]", "values": [{"measurement": "fold changes relative to vehicle control", "setting": "[1]", "value": 1.02}, {"measurement": "fold changes relative to vehicle control", "setting": "[2]", "value": 1.04}, {"measurement": "fold changes relative to vehicle control", "setting": "[3]", "value": 1.02}]}, {"smiles": "NCCOCCOCC(=O)Nc1nc2ncc(CNc3ccc(C(=O)NC(CCC(=O)O)C(=O)O)cc3)nc2c(=O)[nH]1", "note": "(stereo not shown) [compound 6]", "values": [{"measurement": "fold changes relative to vehicle control", "setting": "[4]; HeLa, protein RPL22", "value": 1.2}, {"measurement": "fold changes relative to vehicle control", "setting": "[5]; HeLa, protein PLS3", "value": 1.31}, {"measurement": "fold changes relative to vehicle control", "setting": "[6]; HeLa, captured protein HNRPDL", "value": 1.06}, {"measurement": "fold changes relative to vehicle control", "setting": "[7]; HeLa, captured protein AIP", "value": 0.92}]}, {"smiles": "Nc1nc2[nH]cc(CCc3ccc(C(=O)N[C@@H](CCC(=O)O)C(=O)O)cc3)c2c(=O)[nH]1", "note": "[PTX, pemetrexed]", "values": [{"measurement": "fold changes relative to vehicle control", "setting": "[4]", "value": 0.98}, {"measurement": "fold changes relative to vehicle control", "setting": "[5]", "value": 1.18}, {"measurement": "fold changes relative to vehicle control", "setting": "[6]", "value": 1.02}, {"measurement": "fold changes relative to vehicle control", "setting": "[7]", "value": 0.93}]}, {"smiles": "Nc1nc2c(c(=O)[nH]1)N(C=O)C(CNc1ccc(C(=O)N[C@@H](CCC(=O)O)C(=O)O)cc1)CN2", "note": "(stereo partly shown) [LEU, leucovorin]", "values": [{"measurement": "fold changes relative to vehicle control", "setting": "[4]; HeLa, protein RPL22", "value": 0.86}, {"measurement": "fold changes relative to vehicle control", "setting": "[5]; HeLa, protein PLS3", "value": 0.93}, {"measurement": "fold changes relative to vehicle control", "setting": "[6]; HeLa, captured protein HNRPDL", "value": 1.09}, {"measurement": "fold changes relative to vehicle control", "setting": "[7]; HeLa, captured protein AIP", "value": 0.79}]}]}
